Some test systems named below: A498 renal; A549 NSCLC; CAKI-1 renal; COLO 205 colon; HCT-116 colon; HOP-62 NSCLC; HOP-92 NSCLC; LOX IMVI melanoma; OVCAR-8 ovarian; RPMI-8226 leukemia; SK-OV-3 ovarian; SNB-75 CNS; UACC-257 melanoma; UO-31 renal; EKVX NSCLC; HCC-2998 colon; SF-539 CNS; NCI/ADR-RES ovarian.
What all share (assay): DTP human tumour cell line panel, 48 h

SMILES strings stand for the structures.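 Growth conditions: 96-well plates. Treatment: test compound, 48 hours, 5 concentrations. Analysis: linear interpolation between bracketing concentrations; unreached endpoints set to highest concentration. The concentration for full growth arrest is given as TGI.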

The term TGI denotes the concentration at which net growth stops. Read a high TGI as lower sensitivity of the cells.

`CN1CCc2ccccc2C(C(=O)c2ccc3c(c2)OCO3)C1=O` (configuration not stated): the TGI in the assay on A498 renal, in the assay with A549 NSCLC, with CAKI-1 renal, in the assay with COLO 205 colon, in the assay with HCT-116 colon and in the assay on HOP-62 NSCLC was more than 100 µM throughout. Besides, the TGI in the assay with HOP-92 NSCLC, with LOX IMVI melanoma, in the assay with OVCAR-8 ovarian, with RPMI-8226 leukemia, in the assay on SK-OV-3 ovarian and in the assay with SNB-75 CNS was more than 100 µM throughout. The total growth inhibition concentration (TGI) in the assay with UACC-257 melanoma and in the assay on UO-31 renal was more than 100 µM each time.
Consider `CCCCOC/N=C(/N)NC#N`, for which the TGI in the assay on A498 renal, in the assay on A549 NSCLC, in the assay with CAKI-1 renal, in the assay on COLO 205 colon, in the assay with EKVX NSCLC and with HCC-2998 colon was more than 100 µM each time. For the same molecule, the TGI in the assay on HCT-116 colon was more than 100 µM; in the assay on HOP-62 NSCLC, more than 100 µM; in the assay on HOP-92 NSCLC it was more than 100 µM; in the assay on LOX IMVI melanoma it was 90.1 µM; with OVCAR-8 ovarian it was more than 100 µM; with RPMI-8226 leukemia, more than 100 µM. In addition, the TGI with SF-539 CNS, in the assay with SK-OV-3 ovarian, in the assay on SNB-75 CNS, in the assay on UACC-257 melanoma and in the assay with UO-31 renal was more than 100 µM in each case.
For the molecule `CCCNCCCCC(NC(C)=O)C(=O)NCc1ccccc1` (configuration not stated), the concentration for total growth inhibition (TGI) with A498 renal, in the assay on A549 NSCLC, in the assay on CAKI-1 renal, in the assay with COLO 205 colon, in the assay with EKVX NSCLC and in the assay with HCC-2998 colon was more than 100 µM each time. The TGI in the assay on HCT-116 colon, in the assay on HOP-62 NSCLC, with HOP-92 NSCLC, in the assay with LOX IMVI melanoma, with OVCAR-8 ovarian and in the assay on RPMI-8226 leukemia was more than 100 µM throughout. Also, the TGI with SF-539 CNS, in the assay on SK-OV-3 ovarian, in the assay with SNB-75 CNS, in the assay with UACC-257 melanoma and in the assay on UO-31 renal was more than 100 µM in each case.
On to `COc1cc([C@@H]2c3cc4c(cc3[C@@H](NCc3cccc(C#N)c3)C3COC(=O)[C@@H]32)OCO4)cc(OC)c1O` (some centres not stated), for which the TGI came to 4.27 µM with A498 renal; 1.91 µM in the assay with A549 NSCLC; 20.8 µM in the assay on CAKI-1 renal; 21.4 µM with COLO 205 colon; 6.58 µM in the assay with EKVX NSCLC; 4.51 µM in the assay on HCC-2998 colon. For the same molecule, the total growth inhibition concentration (TGI) was found to be 21.4 µM in the assay on HCT-116 colon; 1.79 µM in the assay with HOP-62 NSCLC; 9.83 µM with HOP-92 NSCLC; 8.36 µM with LOX IMVI melanoma; 4.56 µM in the assay on OVCAR-8 ovarian; 7.33 µM with RPMI-8226 leukemia. Moreover, the TGI in the assay on SF-539 CNS was 1.94 µM; with SK-OV-3 ovarian it was 4.12 µM; with SNB-75 CNS, 4.45 µM; in the assay on UACC-257 melanoma, more than 100 µM; in the assay on UO-31 renal, 5.52 µM.
For the molecule `CCCc1cc(OC(=O)c2c(O)cc(OC)cc2CCC)cc(O)c1C(=O)O`, the TGI was 98.8 µM in the assay on A498 renal; more than 100 µM in the assay on A549 NSCLC; 79.2 µM in the assay on COLO 205 colon; 86.8 µM with EKVX NSCLC; 66.2 µM with HCC-2998 colon; 32.2 µM with HCT-116 colon. The TGI was 35.6 µM with HOP-62 NSCLC; 39 µM in the assay on HOP-92 NSCLC; 61.7 µM with LOX IMVI melanoma; more than 100 µM with OVCAR-8 ovarian; 60.7 µM in the assay with RPMI-8226 leukemia; 34.7 µM in the assay on SF-539 CNS. Moreover, the concentration for total growth inhibition (TGI) is 68.4 µM in the assay with SK-OV-3 ovarian, 73.4 µM in the assay with SNB-75 CNS, 56.2 µM with UACC-257 melanoma and 35.9 µM with UO-31 renal.
As for `Cc1ccc(-c2cc(-c3ccccc3)c(C#N)c(=O)[nH]2)cc1`, the TGI with A498 renal, in the assay on A549 NSCLC, with COLO 205 colon, in the assay on EKVX NSCLC, in the assay with HCC-2998 colon and with HCT-116 colon was more than 100 µM throughout. Moreover, the TGI with HOP-62 NSCLC, in the assay on HOP-92 NSCLC, in the assay on LOX IMVI melanoma, in the assay on OVCAR-8 ovarian, in the assay on RPMI-8226 leukemia and with SF-539 CNS was more than 100 µM each time. Further, the TGI in the assay on SK-OV-3 ovarian, in the assay on SNB-75 CNS, in the assay on UACC-257 melanoma and in the assay with UO-31 renal was more than 100 µM each time.
Regarding `O=[N+]1[C@H](c2ccccc2)[C@H](c2ccccc2)N1[O-]`, the TGI with A498 renal stood at 67.3 µM; in the assay on A549 NSCLC, 41.1 µM; in the assay on CAKI-1 renal, 19.7 µM; in the assay on COLO 205 colon, 37.9 µM; with EKVX NSCLC, 33.8 µM; with HCT-116 colon it was 30.6 µM. In addition, the TGI in the assay with HOP-62 NSCLC was found to be 40.7 µM; in the assay on HOP-92 NSCLC, 30.2 µM; in the assay with LOX IMVI melanoma it was 29.2 µM; with NCI/ADR-RES ovarian it was 35.5 µM; with OVCAR-8 ovarian it was 32.7 µM; with RPMI-8226 leukemia it was 25.4 µM. For the same molecule, the TGI in the assay on SF-539 CNS is 32.7 µM; with SK-OV-3 ovarian it was 96.5 µM; with SNB-75 CNS, 37.2 µM; in the assay with UACC-257 melanoma, 26.3 µM; in the assay with UO-31 renal, 28.5 µM.
In the case of `O=c1oc2c3ccc4ccccc4c3n(CCN3CCCCC3)c2c2ccccc12`, the TGI in the assay with A549 NSCLC, in the assay on CAKI-1 renal, in the assay on COLO 205 colon, in the assay with EKVX NSCLC, with HCC-2998 colon and in the assay on HCT-116 colon was more than 100 µM in each case. Moreover, the TGI in the assay on HOP-62 NSCLC was 58.9 µM; in the assay on HOP-92 NSCLC, more than 100 µM; in the assay on LOX IMVI melanoma, more than 100 µM; in the assay with OVCAR-8 ovarian, more than 67.3 µM; in the assay on RPMI-8226 leukemia it was more than 100 µM; with SF-539 CNS, more than 49.4 µM. For the same molecule, the TGI in the assay on SK-OV-3 ovarian was more than 78.5 µM; in the assay on SNB-75 CNS it was 19.6 µM; in the assay with UACC-257 melanoma it was more than 100 µM; in the assay on UO-31 renal it was more than 100 µM.
Take `CCCCCCCCC(O)c1ccc(/C=C\C(O)CCCC(=O)O)s1` (configuration not stated): the TGI with A549 NSCLC, in the assay with COLO 205 colon, with EKVX NSCLC, in the assay on HCC-2998 colon, in the assay on HCT-116 colon and with HOP-92 NSCLC was more than 100 µM throughout. The TGI with LOX IMVI melanoma, in the assay with OVCAR-8 ovarian, with RPMI-8226 leukemia, in the assay on SF-539 CNS, in the assay on SK-OV-3 ovarian and in the assay with SNB-75 CNS was more than 100 µM each time. Also, the TGI in the assay on UACC-257 melanoma and in the assay with UO-31 renal was more than 100 µM each time.
Consider `C=C1C2=C(CCCC2)C(=O)OC12CCCCC2`, for which the TGI with A549 NSCLC, with COLO 205 colon, with EKVX NSCLC, with HCC-2998 colon, in the assay on HCT-116 colon and in the assay on HOP-62 NSCLC was more than 100 µM each time. Further, the TGI with HOP-92 NSCLC was 77.9 µM; in the assay on LOX IMVI melanoma, more than 100 µM; with OVCAR-8 ovarian, more than 100 µM; with RPMI-8226 leukemia, more than 100 µM; in the assay with SF-539 CNS it was more than 100 µM; in the assay on SK-OV-3 ovarian, more than 100 µM. Moreover, the TGI in the assay with SNB-75 CNS, in the assay with UACC-257 melanoma and with UO-31 renal was more than 100 µM in each case.
For `CCOC(=O)C1=C(OC(OCC)C(CC)[Se]c2ccccc2)CCC1` (configuration not stated), the TGI in the assay on A498 renal was more than 100 µM; in the assay with A549 NSCLC, more than 100 µM; with CAKI-1 renal it was more than 100 µM; in the assay with COLO 205 colon, more than 100 µM; in the assay with EKVX NSCLC, 91.2 µM; in the assay with HCC-2998 colon, more than 100 µM. Also, the TGI was more than 100 µM with HCT-116 colon; more than 100 µM in the assay with HOP-62 NSCLC; 45.8 µM with HOP-92 NSCLC; 20.5 µM in the assay on LOX IMVI melanoma; more than 100 µM in the assay on OVCAR-8 ovarian; 53.2 µM in the assay with RPMI-8226 leukemia. Besides, the TGI was 37.4 µM in the assay on SF-539 CNS; more than 100 µM in the assay with SK-OV-3 ovarian; 69.8 µM in the assay with SNB-75 CNS; 77.4 µM in the assay on UACC-257 melanoma; 96.2 µM in the assay with UO-31 renal.
As for `O=[N+]([O-])c1cccc(Nc2nc(Cl)nc(Cl)n2)c1`, the concentration for total growth inhibition (TGI) in the assay with A549 NSCLC, in the assay on CAKI-1 renal, in the assay with COLO 205 colon, with EKVX NSCLC, in the assay on HCC-2998 colon and with HCT-116 colon was more than 100 µM throughout. In addition, the TGI in the assay with HOP-62 NSCLC, in the assay with LOX IMVI melanoma, in the assay on OVCAR-8 ovarian, in the assay with RPMI-8226 leukemia, with SF-539 CNS and with SK-OV-3 ovarian was more than 100 µM throughout. The TGI with SNB-75 CNS, in the assay with UACC-257 melanoma and in the assay on UO-31 renal was more than 100 µM each time.
`CCSC1=N/C(=C\c2ccco2)C(=O)N1`: the TGI with A498 renal, with A549 NSCLC, with COLO 205 colon, in the assay on EKVX NSCLC, with HCT-116 colon and with HOP-62 NSCLC was more than 100 µM in each case. Further, the TGI with HOP-92 NSCLC, in the assay with LOX IMVI melanoma, in the assay with NCI/ADR-RES ovarian, in the assay on OVCAR-8 ovarian, with RPMI-8226 leukemia and in the assay with SK-OV-3 ovarian was more than 100 µM each time. The TGI with SNB-75 CNS and in the assay with UO-31 renal was more than 100 µM in each case.
Turning to `COc1ccc2[nH]c3c(c2c1)[C@H]1CCC(C(C)(C)C)C[C@H]1[C@H]1C(=O)N(c2ccccc2)C(=O)[C@@H]31` (some centres not stated), the TGI in the assay on A498 renal was 44.1 µM; with A549 NSCLC, more than 75.8 µM; in the assay on CAKI-1 renal, more than 36.6 µM; in the assay on COLO 205 colon, more than 79.2 µM; in the assay with EKVX NSCLC it was more than 100 µM; in the assay with HCC-2998 colon it was more than 100 µM. The TGI with HCT-116 colon was more than 100 µM; with HOP-62 NSCLC it was 38.3 µM; in the assay on HOP-92 NSCLC, 21 µM; in the assay with LOX IMVI melanoma it was more than 100 µM; in the assay with OVCAR-8 ovarian it was 28.1 µM; in the assay with RPMI-8226 leukemia, more than 100 µM. Besides, the TGI with SF-539 CNS is 18.1 µM; with SK-OV-3 ovarian, 44.9 µM; in the assay on SNB-75 CNS, 14.6 µM; with UACC-257 melanoma, more than 80.6 µM; with UO-31 renal, 97.5 µM.

These data come from PubChem BioAssay (NCI).
